# In US20250020635A1, “ASSAY METHODS AND USES THEREOF FOR SCREENING ALZHEIMER'S DISEASE TREATMENT COMPOUNDS” (priority 2023, published 2025):
# Experiments:
# PLCγ2 enzyme = biological target: T1, PLCγ2 enzyme (Homo sapiens, UniProt P16885); experiment: Liposomal biochemical assay with fluorogenic probe XY-69; conditions: for increase in PLCγ2 activity (change in slope relative to control): dose response, liposomes with XY-69
# T1 sequence (P16885 1-1265): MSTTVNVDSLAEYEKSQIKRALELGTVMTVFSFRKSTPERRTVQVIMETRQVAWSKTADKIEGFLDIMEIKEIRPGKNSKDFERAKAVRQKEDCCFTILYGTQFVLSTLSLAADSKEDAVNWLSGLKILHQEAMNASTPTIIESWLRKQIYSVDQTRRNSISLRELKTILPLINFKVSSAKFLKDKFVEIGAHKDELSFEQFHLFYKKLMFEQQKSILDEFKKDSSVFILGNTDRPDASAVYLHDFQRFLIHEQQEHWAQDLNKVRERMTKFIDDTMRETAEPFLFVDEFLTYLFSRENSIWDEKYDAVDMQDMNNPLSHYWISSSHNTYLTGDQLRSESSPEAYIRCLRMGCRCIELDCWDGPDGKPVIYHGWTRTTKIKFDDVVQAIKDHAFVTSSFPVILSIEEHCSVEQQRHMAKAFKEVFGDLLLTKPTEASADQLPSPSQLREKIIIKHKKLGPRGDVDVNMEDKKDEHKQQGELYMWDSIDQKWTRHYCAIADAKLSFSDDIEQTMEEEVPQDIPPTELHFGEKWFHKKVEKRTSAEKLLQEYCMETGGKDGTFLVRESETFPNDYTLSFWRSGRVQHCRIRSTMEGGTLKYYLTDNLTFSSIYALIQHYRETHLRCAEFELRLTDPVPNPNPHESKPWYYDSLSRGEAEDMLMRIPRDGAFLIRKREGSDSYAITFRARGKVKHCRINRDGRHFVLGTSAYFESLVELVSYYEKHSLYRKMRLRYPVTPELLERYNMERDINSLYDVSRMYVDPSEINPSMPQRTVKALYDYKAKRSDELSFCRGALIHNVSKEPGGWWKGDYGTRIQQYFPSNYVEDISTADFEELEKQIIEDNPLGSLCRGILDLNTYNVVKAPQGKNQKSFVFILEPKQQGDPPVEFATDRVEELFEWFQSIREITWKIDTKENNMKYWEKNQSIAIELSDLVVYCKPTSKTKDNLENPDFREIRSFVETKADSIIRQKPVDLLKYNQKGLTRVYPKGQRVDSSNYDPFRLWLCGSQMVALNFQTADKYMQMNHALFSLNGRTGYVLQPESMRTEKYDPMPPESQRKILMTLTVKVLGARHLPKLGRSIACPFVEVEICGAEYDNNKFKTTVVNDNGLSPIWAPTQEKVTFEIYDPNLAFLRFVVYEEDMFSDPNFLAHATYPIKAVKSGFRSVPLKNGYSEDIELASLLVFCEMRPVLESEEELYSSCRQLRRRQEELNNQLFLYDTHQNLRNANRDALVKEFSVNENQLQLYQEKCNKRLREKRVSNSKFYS
# Source text: Sondek and coworkers have described an assay for PLCγ1 activity in the presence of liposomes as a model for activity at the cell membrane where the natural ligand is located.^36 The assay was redeveloped and reoptimized for PLCγ2 at the Purdue Institute for Drug Discovery. Liposomes containing XY-69 (purchased from Avanti Polar Lipids, cat. #850168) were generated using phosphatidylinositol 4,5-bisphosphate (PIP2) and 1-stearoyl-2-arachidonoyl-sn-glycero-3-phosphatidylethanolamine (lipidPE). The PLCγ2 enzyme was exposed to this solution and, after treatment with the compounds of interest, the fluorescence intensity (ex: 485 nm; em: 520 nm) was recorded every 2 min for 120 min (FIG. 19). The slope of the linear portion of the curves (up to 50 min) was compared to control giving a relative rate of reaction. Dose dependent curves of a representative sample of the compounds tested are shown (FIG. 20A-20B).
# HMC3 cells = experiment: Microglial phagocytosis/cell health high-content assay, HMC3 cells; assay type: cell-based; conditions: 60 μM, 48 hrs, compared to control
# Procedure: (§1) The assay introduced here is a simplified cellular imaging assay without any fixation and washing steps, while producing multiparameter measurements with high capacity using a 384-well plate format. The assay procedures include plating cells on day 1, incubating cell plates overnight before treating cells on day 2, adding pHrodo™-myelin/membrane debris to cell plates on day 3, and 20 hr later, staining cell nuclei with Hoechst-33342 for 30 min before performing high-content imaging on day 4. Three selected parameters are measured from cells: 1) mean total fluorescence intensity per cell of pHrodo™-myelin/membrane debris in phagocytosis vesicles to quantify phagocytosis; 2) cell counts per well to quantify treatment effects on proliferation and cell death; and 3) average nuclear intensity to quantify treatment-induced nuclear changes such as in apoptosis. The assay has been used on HMC3 cells (an immortalized human microglial cell line), BV2 cells (an immortalized mouse microglial cell line), and primary microglia isolated from mouse brains. For initial assay attempts, we recommend using HMC3 cells available from the ATCC.
# (§2) All collected raw data are normalized to the untreated control with following formula: % of control=100×(X−Min)/(Max−Min). Factors in the formula are: X is raw data from a treated well, Max is an average measurement from pHrodo™-myelin seeded but untreated wells, and Min is an average measurement from no pHrodo™-myelin untreated wells. Normalized data are used for curve fitting that is done with the variable slope (four parameters) using the Prism software.
# (§3) To ensure that the measurements reflect the steady state of compound treatment effects and cell health, the assay was set with a total compound treatment time of 48 hr, including pHrodo™-myelin/membrane debris seeding performed 20-24 hr after compound addition. […] Among many available quantitative measurements from the image analysis, we selected three parameters for the assay:
# (§4) 1) The mean total intensity of phagocytosis vesicles/cell—to measure phagocytosis. There are multiple parameters generated from the image analysis, including phagocytosis vesicle area, number, and various fluorescence intensity measurements. Comparing these parameters, the total fluorescence intensity of vesicles/cell is the most sensitive one and was chosen for quantifying phagocytosis.
# (§5) 2) The total cell counts—to measure overall cell viability, which is affected by proliferation and cell death. We chose to take 4 images/well (with the 10× objective lens) that cover about 50% of the total area of a well in a 384-well plate to represent cell count of the well.
# (§6) 3) The average nuclear intensity—to measure drug-induced apoptosis, with high signal indicating nuclear condescension (a sign of early apoptosis) and low signal indicating DNA degradation (a sign of later apoptosis, when activated caspases digest DNA).
# (§7) A phenotypic high-content imaging assay with simultaneous measurements of phagocytosis, cell number, and nuclear intensity was used to assess both cellular pharmacology and cell health. Model cell lines BV2 (immortalized mouse microglia, a gift from Dr. Michelle Block's laboratory at IUSM) and HMC3 (immortalized human microglia, obtained from ATCC, CRL-3304) were used to provide adequate throughput. Cells were cultured in DMEM GlutaMax media (ThermoFisher) containing 10% FBS and Pen-Strep in a 37° C. 5% CO2 incubator, plated in Corning Falcon 384 well Optilux Black and clear bottom plates: 400 cells/45 μl/well (BV2 cells), 600 cells/45 μl/well (HMC3 cells) and 2000 cell/45 μl/well (primary cells), and treated with 10× serially diluted compounds (60 μM-3 nM) for 48 hrs at 37° C. […]
# BV2 cells = experiment: Microglial phagocytosis/cell health high-content assay, BV2 cells; assay type: cell-based; conditions: for Ave. % Cell Count @ 60 uM BV2 cells / Ave. % Phagocytosis @ 60 uM BV2 cells: 48 hrs, compared to control
# Procedure: as §1, §2, §3, §4, §5, §6, §7
SMILES,"enzymatic activation, single dose (PLCγ2 enzyme; 100 μM)",Ave. % Cell Count @ 60 uM HMC3 cells (HMC3 cells),Ave. % Phagocytosis @ 60 uM HMC3 cells (HMC3 cells),Ave. % Cell Count @ 60 uM BV2 cells (BV2 cells),Ave. % Phagocytosis @ 60 uM BV2 cells (BV2 cells),"phagocytosis increase against cell count decline (BV2 cells; HMC3 and BV2 cells (Table 6, FIGS. 21, 22))",increase in PLCγ2 activity (change in slope relative to control) (PLCγ2 enzyme),increase in PLCγ2 activity (change in slope relative to control) (PLCγ2 enzyme; listed as m-3M3FBS)
Cc1cc(C)c(S(=O)(=O)NC2CCCNC2)c(C)c1 (stereo not drawn) [Compound 11],no enzymatic activation,65%,146%,63%,225%,moderate degree of potential cytotoxicity,–,–
"Cc1cc(C)c(S(=O)(=O)Nc2ccccc2C(F)(F)F)c(C)c1 [Compound 2, o-3M3FBS, reference compound]",–,103%,99%,104%,104%,–,"much lower, though it still showed a statistically significant increase in activation",–
"Cc1cc(C)c(S(=O)(=O)Nc2cccc(C(F)(F)F)c2)c(C)c1 [Compound 1, 2,4,6-trimethyl-N-(meta-3-trifluoromethyl-phenyl)-benzenesulfonamide, reference compound]",–,3%,0%,2%,0.05%,–,among the highest increases of all analogs tested,highest increase in response
O=S(=O)(Nc1ccc(Br)cc1F)c1cccs1 [Compound 8],–,88%,104%,86%,114%,–,–,–
